Laboratory results: ChEMBL document CHEMBL5120784, “Discovery of a novel 2-aminopyrazine-3-carboxamide as a potent and selective inhibitor of Activin Receptor-Like Kinase-2 (ALK2) for the treatment of fibrodysplasia ossificans progressiva” (Bioorg Med Chem Lett, 2022)
≈ marks a conversion by molar mass, not a printed value. Each block holds one molecule with its values, some of them ahead of it.

Tests used:
[1] = Permeability of compound by PAMPA assay; assay type: ADME; parameters: reference not given here
[2] = Aqueous solubility of compound at pH 6.8; assay type: physicochemical
[3] = Microsomal stability in mouse liver microsomes assessed as clearance; assay type: ADME, Microsome
[4] = target: Interferon-induced, double-stranded RNA-activated protein kinase (Homo sapiens) (UniProt P19525); test: Binding affinity to wild type EIF2AK2 (unknown origin) assessed as percent of control at 1 uM by Kinomescan method relative to control
[5] = target: T1, Bone morphogenetic protein receptor type-1A (Homo sapiens, UniProt P36894); test: Binding affinity to wild type ALK3 (unknown origin) assessed as percent of control at 1 uM by Kinomescan method relative to control
T1 sequence (P36894 whole entry): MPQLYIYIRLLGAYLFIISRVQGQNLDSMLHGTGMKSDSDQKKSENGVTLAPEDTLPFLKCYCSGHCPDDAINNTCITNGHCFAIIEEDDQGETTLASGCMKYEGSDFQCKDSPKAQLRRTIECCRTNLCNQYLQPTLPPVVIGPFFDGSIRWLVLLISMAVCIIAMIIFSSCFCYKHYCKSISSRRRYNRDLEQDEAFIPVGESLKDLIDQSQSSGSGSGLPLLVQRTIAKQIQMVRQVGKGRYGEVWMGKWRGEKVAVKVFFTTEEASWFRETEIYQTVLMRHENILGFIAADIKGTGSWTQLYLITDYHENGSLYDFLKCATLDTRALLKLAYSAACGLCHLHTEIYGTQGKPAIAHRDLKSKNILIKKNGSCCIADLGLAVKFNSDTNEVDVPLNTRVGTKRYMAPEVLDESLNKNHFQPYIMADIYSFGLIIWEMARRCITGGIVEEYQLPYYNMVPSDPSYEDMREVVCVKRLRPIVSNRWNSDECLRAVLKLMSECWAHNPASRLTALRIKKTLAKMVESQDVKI

[6] = target: Serine/threonine-protein kinase 38 (Homo sapiens) (UniProt Q15208); test: Binding affinity to wild type STK38 (unknown origin) assessed as percent of control at 1 uM by Kinomescan method relative to control
Serine/threonine-protein kinase 38 (Homo sapiens), sequence (Q15208 2-465 limits assumed): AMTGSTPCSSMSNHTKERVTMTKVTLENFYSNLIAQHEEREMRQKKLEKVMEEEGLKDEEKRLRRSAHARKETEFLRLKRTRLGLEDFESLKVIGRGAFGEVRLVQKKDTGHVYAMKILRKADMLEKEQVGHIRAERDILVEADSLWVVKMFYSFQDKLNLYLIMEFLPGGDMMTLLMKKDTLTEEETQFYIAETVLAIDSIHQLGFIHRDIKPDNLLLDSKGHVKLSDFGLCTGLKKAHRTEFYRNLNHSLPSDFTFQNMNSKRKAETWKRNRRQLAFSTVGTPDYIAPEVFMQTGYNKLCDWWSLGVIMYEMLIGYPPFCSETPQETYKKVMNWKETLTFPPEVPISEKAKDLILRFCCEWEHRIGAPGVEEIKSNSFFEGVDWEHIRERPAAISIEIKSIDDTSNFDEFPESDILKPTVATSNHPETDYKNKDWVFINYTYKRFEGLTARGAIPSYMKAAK

[7] = target: T2, Bone morphogenetic protein receptor type-1B (Homo sapiens, UniProt O00238); test: Inhibition of wild type ALK6 (unknown origin) assessed as enzymatic activity using chemiluminescent substrate by ADP-Glo assay
T2 sequence (O00238 whole entry): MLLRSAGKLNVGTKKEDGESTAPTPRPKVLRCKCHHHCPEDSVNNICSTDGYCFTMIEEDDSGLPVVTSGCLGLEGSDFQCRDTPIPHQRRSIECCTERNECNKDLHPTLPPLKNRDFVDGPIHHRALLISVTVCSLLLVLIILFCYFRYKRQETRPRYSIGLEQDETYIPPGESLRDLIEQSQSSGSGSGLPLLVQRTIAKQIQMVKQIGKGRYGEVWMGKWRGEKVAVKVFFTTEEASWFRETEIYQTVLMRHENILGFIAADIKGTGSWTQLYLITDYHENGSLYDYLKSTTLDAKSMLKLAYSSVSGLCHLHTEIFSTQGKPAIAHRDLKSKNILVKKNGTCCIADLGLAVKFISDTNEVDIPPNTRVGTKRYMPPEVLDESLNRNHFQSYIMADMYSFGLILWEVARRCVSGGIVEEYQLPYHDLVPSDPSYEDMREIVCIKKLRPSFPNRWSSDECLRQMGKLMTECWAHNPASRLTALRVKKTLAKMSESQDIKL

[8] = target: Dual specificity protein kinase CLK2 (Homo sapiens) (UniProt P49760); test: Binding affinity to wild type CLK2 (unknown origin) assessed as percent of control at 1 uM by Kinomescan method relative to control
Dual specificity protein kinase CLK2 (Homo sapiens), sequence (P49760 whole entry, looked up): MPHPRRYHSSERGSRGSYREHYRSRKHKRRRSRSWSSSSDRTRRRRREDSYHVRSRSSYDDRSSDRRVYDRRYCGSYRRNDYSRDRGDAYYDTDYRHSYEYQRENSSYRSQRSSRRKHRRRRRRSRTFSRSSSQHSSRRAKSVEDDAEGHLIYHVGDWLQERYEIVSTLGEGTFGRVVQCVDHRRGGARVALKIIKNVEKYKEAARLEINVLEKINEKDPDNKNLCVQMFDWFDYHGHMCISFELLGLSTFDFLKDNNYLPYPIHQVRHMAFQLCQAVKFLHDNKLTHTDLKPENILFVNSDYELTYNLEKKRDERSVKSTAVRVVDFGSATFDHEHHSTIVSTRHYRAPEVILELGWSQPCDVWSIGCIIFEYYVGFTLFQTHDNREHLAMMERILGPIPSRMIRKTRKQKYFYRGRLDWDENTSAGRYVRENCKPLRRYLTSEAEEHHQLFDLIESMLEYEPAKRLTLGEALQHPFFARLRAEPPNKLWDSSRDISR

Homo sapiens [9] = species on record: Homo sapiens; test: Selectivity ratio of IC50 for inhibition of wild type ALK6 (unknown origin) to IC50 for inhibition of ALK2 R206H mutant (unknown origin)
[10] = target: T3, Activin receptor type-1-like (Homo sapiens, UniProt P37023); test: Binding affinity to wild type ALK1 (unknown origin) assessed as percent of control at 1 uM by Kinomescan method relative to control
T3 sequence (P37023 whole entry): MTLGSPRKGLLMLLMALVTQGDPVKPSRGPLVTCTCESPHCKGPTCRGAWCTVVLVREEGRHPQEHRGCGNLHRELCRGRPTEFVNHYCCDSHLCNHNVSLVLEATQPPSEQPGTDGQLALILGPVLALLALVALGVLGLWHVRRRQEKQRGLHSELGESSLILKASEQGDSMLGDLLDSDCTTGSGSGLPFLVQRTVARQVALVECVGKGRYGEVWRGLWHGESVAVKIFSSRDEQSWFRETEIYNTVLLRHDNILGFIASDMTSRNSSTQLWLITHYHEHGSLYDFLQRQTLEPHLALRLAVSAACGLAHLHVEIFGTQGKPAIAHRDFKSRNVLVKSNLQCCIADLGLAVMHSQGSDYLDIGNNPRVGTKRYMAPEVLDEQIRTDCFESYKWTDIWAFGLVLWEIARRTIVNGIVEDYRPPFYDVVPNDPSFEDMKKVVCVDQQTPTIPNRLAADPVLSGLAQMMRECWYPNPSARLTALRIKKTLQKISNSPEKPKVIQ

Homo sapiens [11] = species on record: Homo sapiens; test: Selectivity ratio of IC50 for inhibition of wild type ALK5 (unknown origin) to IC50 for Inhibition of ALK2 R206H mutant (unknown origin)
[12] = target: T3, Activin receptor type-1-like; test: Inhibition of wild type ALK1 (unknown origin) assessed as enzymatic activity by microfluidic mobility shift assay
[13] = target: T1, Bone morphogenetic protein receptor type-1A; test: Inhibition of wild type ALK3 (unknown origin) assessed as enzymatic activity using chemiluminescent substrate by ADP-Glo assay
TGF-beta receptor type-1 = target: T4, TGF-beta receptor type-1 (Homo sapiens, UniProt P36897); test: Inhibition of wild type ALK5 (unknown origin) assessed as enzymatic activity by microfluidic mobility shift assay
T4 sequence (P36897 whole entry): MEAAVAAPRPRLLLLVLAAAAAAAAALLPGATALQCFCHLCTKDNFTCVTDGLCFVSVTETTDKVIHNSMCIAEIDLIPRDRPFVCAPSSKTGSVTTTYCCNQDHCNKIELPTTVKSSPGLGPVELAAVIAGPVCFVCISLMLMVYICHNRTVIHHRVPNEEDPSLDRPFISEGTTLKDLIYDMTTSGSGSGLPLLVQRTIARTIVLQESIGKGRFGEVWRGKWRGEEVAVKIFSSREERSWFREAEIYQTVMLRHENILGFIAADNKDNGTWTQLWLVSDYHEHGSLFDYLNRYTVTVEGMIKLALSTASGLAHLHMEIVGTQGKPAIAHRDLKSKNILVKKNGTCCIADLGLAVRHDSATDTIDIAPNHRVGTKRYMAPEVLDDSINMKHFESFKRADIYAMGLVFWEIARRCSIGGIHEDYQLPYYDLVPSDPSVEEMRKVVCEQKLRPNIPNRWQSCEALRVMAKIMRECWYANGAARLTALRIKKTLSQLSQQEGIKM

[14] = target: Dual specificity protein kinase CLK1 (Homo sapiens) (UniProt P49759); test: Binding affinity to wild type CLK1 (unknown origin) assessed as percent of control at 1 uM by Kinomescan method relative to control
Dual specificity protein kinase CLK1 (Homo sapiens), sequence (P49759 whole entry, looked up): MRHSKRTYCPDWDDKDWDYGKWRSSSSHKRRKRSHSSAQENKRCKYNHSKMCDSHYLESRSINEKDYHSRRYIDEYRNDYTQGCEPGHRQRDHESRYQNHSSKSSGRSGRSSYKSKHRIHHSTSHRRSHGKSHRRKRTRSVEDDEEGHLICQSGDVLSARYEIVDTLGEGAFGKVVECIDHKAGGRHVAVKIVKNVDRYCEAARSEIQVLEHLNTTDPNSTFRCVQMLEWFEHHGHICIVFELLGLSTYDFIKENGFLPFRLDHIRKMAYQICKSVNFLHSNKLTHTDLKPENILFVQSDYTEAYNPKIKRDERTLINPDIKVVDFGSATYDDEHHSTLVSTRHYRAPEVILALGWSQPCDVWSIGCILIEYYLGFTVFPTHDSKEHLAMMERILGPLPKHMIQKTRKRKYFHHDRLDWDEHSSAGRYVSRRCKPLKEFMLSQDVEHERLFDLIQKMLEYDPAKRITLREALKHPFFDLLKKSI

Homo sapiens [15] = species on record: Homo sapiens; test: Selectivity ratio of IC50 for inhibition of wild type ALK3 (unknown origin) to IC50 for inhibition of ALK2 R206H mutant (unknown origin)
[16] = target: T2, Bone morphogenetic protein receptor type-1B; test: Binding affinity to wild type ALK6 (unknown origin) assessed as percent of control at 1 uM by Kinomescan method relative to control
Activin receptor type-1 [17] = target: T5, Activin receptor type-1 (Homo sapiens, UniProt Q04771, R206H); test: Inhibition of ALK2 R206H mutant (unknown origin) assessed as enzymatic activity by microfluidic mobility shift assay
T5 sequence (Q04771 21-509 R206H limits assumed): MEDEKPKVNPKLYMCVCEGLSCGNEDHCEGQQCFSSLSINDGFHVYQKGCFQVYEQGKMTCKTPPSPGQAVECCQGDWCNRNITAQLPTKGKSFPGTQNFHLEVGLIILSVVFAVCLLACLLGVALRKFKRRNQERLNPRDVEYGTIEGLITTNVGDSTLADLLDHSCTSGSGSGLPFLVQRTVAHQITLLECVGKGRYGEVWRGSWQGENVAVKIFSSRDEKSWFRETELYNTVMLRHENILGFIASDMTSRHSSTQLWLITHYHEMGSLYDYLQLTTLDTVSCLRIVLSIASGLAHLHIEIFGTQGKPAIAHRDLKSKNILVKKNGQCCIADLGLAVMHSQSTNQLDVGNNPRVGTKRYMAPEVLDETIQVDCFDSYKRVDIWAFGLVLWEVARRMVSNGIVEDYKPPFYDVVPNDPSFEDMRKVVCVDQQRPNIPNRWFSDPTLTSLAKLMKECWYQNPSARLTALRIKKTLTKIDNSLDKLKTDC

Homo sapiens [18] = species on record: Homo sapiens; test: Selectivity ratio of IC50 for inhibition of wild type ALK1 (unknown origin) to IC50 for inhibition of ALK2 R206H mutant (unknown origin)
[19] = target: T6, Activin receptor type-1 (Homo sapiens) (UniProt Q04771); test: Binding affinity to wild type ALK2 (unknown origin) assessed as percent of control at 1 uM by Kinomescan method relative to control
T6 sequence (whole entry): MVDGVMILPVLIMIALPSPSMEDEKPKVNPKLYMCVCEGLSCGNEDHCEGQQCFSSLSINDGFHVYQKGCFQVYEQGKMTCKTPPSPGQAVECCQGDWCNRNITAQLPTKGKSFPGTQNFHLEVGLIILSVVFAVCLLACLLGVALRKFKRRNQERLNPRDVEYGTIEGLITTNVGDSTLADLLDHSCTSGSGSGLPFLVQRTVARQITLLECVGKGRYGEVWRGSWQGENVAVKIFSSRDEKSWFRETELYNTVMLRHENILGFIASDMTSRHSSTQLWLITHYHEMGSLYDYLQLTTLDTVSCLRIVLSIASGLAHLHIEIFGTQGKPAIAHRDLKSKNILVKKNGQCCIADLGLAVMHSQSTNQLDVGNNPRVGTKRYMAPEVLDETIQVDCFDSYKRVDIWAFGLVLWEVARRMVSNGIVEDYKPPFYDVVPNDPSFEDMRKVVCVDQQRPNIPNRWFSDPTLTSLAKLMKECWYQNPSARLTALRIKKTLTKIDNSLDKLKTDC

[20] = target: Non-receptor tyrosine-protein kinase TYK2 (Homo sapiens) (UniProt P29597); test: Binding affinity to wild type TYK2 JH2 domain (unknown origin) assessed as percent of control at 1 uM by Kinomescan method relative to control
Non-receptor tyrosine-protein kinase TYK2 (Homo sapiens), sequence (P29597 whole entry, the tested form may be a part): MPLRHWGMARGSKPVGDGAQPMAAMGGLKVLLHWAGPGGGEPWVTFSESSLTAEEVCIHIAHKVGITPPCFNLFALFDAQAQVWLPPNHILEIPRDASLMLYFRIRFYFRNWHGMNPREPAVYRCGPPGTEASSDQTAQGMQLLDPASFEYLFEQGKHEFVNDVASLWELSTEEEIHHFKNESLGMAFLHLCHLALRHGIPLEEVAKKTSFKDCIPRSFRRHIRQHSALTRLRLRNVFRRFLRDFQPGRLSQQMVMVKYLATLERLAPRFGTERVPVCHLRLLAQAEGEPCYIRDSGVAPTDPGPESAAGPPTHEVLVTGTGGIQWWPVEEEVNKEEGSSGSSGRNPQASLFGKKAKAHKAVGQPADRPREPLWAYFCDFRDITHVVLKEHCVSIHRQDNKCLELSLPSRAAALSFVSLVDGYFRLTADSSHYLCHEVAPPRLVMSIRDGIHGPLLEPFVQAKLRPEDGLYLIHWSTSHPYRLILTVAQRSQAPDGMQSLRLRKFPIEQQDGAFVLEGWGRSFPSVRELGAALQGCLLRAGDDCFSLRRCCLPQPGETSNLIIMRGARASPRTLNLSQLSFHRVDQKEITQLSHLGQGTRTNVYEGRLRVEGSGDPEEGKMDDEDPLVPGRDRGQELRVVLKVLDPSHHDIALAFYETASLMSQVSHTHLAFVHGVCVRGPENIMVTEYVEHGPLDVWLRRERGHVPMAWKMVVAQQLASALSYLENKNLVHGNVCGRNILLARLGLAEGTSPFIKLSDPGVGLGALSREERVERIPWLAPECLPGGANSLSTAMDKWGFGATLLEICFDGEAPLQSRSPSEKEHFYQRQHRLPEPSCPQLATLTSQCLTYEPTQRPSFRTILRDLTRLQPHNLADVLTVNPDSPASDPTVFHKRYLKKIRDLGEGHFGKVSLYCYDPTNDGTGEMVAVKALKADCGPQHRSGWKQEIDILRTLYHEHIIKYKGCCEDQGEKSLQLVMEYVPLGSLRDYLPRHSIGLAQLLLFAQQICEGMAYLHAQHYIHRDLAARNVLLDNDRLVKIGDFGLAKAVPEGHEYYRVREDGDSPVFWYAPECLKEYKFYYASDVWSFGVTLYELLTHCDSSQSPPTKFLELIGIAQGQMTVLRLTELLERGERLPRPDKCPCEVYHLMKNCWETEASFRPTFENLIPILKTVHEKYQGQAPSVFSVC

Activin receptor type-1 [21] = target: T7, Activin receptor type-1 (Homo sapiens, UniProt Q04771); test: Inhibition of wild type ALK2 (unknown origin) assessed as enzymatic activity by microfluidic mobility shift assay
T7 sequence (Q04771 whole entry): T6 sequence (whole entry)

Activin receptor type-1 [22] = target: T5, Activin receptor type-1; test: Inhibition of ALK2 R206H mutant (unknown origin) transfected in BMP6-stimulated human HEK293 cells by luciferase reporter gene assay; assay type: cell-based
Homo sapiens [23] = species on record: Homo sapiens; test: Selectivity ratio of IC50 for inhibition of wild type ALK2 (unknown origin) to IC50 for inhibition of ALK2 R206H mutant (unknown origin)

permeability [1]: 56%
solubility [2]: > 1000 µM
CLH [3]: < 10 µL/min/mg
Compound: Nc1ncc(-c2ccc(CN3CCC(N4CCCC4)CC3)cc2)nc1C(=O)N[C@H]1CC[C@H](O)CC1 (stereo in doubt; 18)

permeability [1]: 65%
solubility [2]: > 1000 µM
CLH [3]: 19 µL/min/mg
Compound: Nc1ncc(-c2ccc(CN3CCC(N4CCOCC4)CC3)cc2)nc1C(=O)N[C@H]1CC[C@H](O)CC1

permeability [1]: 62%
CLH [3]: 23 µL/min/mg
Compound: Nc1ncc(-c2ccc(CN3CCC(N4CCCC4)CC3)cc2)nc1C(=O)N[C@H]1CC[C@H](O)CC1 (stereo in doubt; 19)

permeability [1]: 100%
solubility [2]: 190 µM (≈ 67.2 µg/mL)
CLH [3]: 839 µL/min/mg
Compound: CN(C)Cc1ccc(-c2cnc(N)c(C(=O)NC3CCCCC3)n2)cc1

permeability [1]: 94%
solubility [2]: 850 µM (≈ 314 µg/mL)
CLH [3]: 64 µL/min/mg
Compound: CN(C)Cc1ccc(-c2cnc(N)c(C(=O)NC3CCC(O)CC3)n2)cc1 (centres undefined)

permeability [1]: 96%
solubility [2]: > 1000 µM
CLH [3]: 74 µL/min/mg
Compound: Nc1ncc(-c2ccc(CN3CCC(N4CCOCC4)CC3)cc2Cl)nc1C(=O)N[C@H]1CC[C@H](O)CC1

permeability [1]: 85%
solubility [2]: 830 µM (≈ 376 µg/mL)
CLH [3]: 12 µL/min/mg
Compound: CC(C)N1CCN(Cc2ccc(-c3cnc(N)c(C(=O)N[C@H]4CC[C@H](O)CC4)n3)cc2)CC1

permeability [1]: 61%
solubility [2]: > 1000 µM
CLH [3]: < 10 µL/min/mg
Compound: CCN(CC)C1CCN(Cc2ccc(-c3cnc(N)c(C(=O)N[C@H]4CC[C@H](O)CC4)n3)cc2)CC1

permeability [1]: 99%
solubility [2]: > 1000 µM
CLH [3]: 28 µL/min/mg
Compound: CC(C)N1CCN(Cc2ccc(-c3cnc(N)c(C(=O)NC[C@@](C)(O)C(F)(F)F)n3)cc2)CC1

The remaining lines, values behind:

Compound: C[C@@](O)(CNC(=O)c1nc(-c2ccc(CN3CCCC3)cc2)cnc1N)C(F)(F)F
permeability [1]: 99%
solubility [2]: > 1000 µM
CLH [3]: 41 µL/min/mg

Compound: CN(C)Cc1ccc(-c2cnc(N)c(C(=O)NC[C@@](C)(O)C(F)(F)F)n2)cc1
permeability [1]: 99%
solubility [2]: 510 µM (≈ 203 µg/mL)
CLH [3]: 126 µL/min/mg

Compound: CN(C)Cc1ccc(-c2cnc(N)c(C(=O)NC3CCCC3O)n2)cc1 (centres undefined)
permeability [1]: 99%
solubility [2]: 940 µM (≈ 334 µg/mL)
CLH [3]: 179 µL/min/mg

Compound: C[C@@](O)(CNC(=O)c1nc(-c2ccc(CN3CCS(=O)(=O)CC3)cc2)cnc1N)C(F)(F)F
permeability [1]: 45%
solubility [2]: 4 µM (≈ 1.95 µg/mL)
CLH [3]: 20 µL/min/mg

Compound: C[C@@](O)(CNC(=O)c1nc(-c2ccc(CN3CCNCC3)cc2)cnc1N)C(F)(F)F
permeability [1]: 42%
solubility [2]: > 1000 µM
CLH [3]: < 10 µL/min/mg

Compound: CCN(CC)Cc1ccc(-c2cnc(N)c(C(=O)NC[C@@](C)(O)C(F)(F)F)n2)cc1
permeability [1]: 99%
solubility [2]: > 1000 µM
CLH [3]: 58 µL/min/mg

Compound: C[C@@](O)(CNC(=O)c1nc(-c2ccc(CN3CCOCC3)cc2)cnc1N)C(F)(F)F
permeability [1]: 99%
solubility [2]: 190 µM (≈ 83.5 µg/mL)
CLH [3]: 86 µL/min/mg

Compound: C[C@]1(O)CC[C@H](NC(=O)c2nc(-c3ccc(CN4CCC(N5CCOCC5)CC4)cc3Cl)cnc2N)CC1
CLH [3]: 197 µL/min/mg

Compound: CCNC(=O)c1nc(-c2ccc(CN(C)C)cc2)cnc1N
permeability [1]: 99%
solubility [2]: > 1000 µM
CLH [3]: 373 µL/min/mg

Compound: CC(C)NC(=O)c1nc(-c2ccc(CN(C)C)cc2)cnc1N
permeability [1]: 100%
solubility [2]: > 1000 µM
CLH [3]: 634 µL/min/mg

Compound: CN(C)Cc1ccc(-c2cnc(N)c(C(=O)NCC(O)C(F)(F)F)n2)cc1 (centres undefined)
permeability [1]: 93%
solubility [2]: 880 µM (≈ 337 µg/mL)
CLH [3]: 159 µL/min/mg

Compound: Nc1ncc(-c2ccc(CN3CCC(N4CCOCC4)CC3)cc2Cl)nc1C(=O)NC12CCC(O)(CC1)CC2
Activity [4]: 14%
Activity [5]: 11%
Activity [6]: 14%
IC50 [7]: 2100 nM
Activity [8]: 27%
Ratio IC50 (Homo sapiens [9]): 263
Activity [10]: 8.5%
permeability [1]: 99%
Ratio IC50 (Homo sapiens [11]): 275
IC50 [12]: 120 nM
IC50 [13]: 280 nM
IC50 (TGF-beta receptor type-1): 2200 nM
Activity [14]: 29%
Ratio IC50 (Homo sapiens [15]): 35
solubility [2]: 420 µM (≈ 233 µg/mL)
Activity [16]: 0.7%
IC50 (Activin receptor type-1 [17]): 8 nM
Ratio IC50 (Homo sapiens [18]): 15
Activity [19]: 2%
CLH [3]: 55 µL/min/mg
Activity [20]: 24%
IC50 (Activin receptor type-1 [21]): 12 nM
IC50 (Activin receptor type-1 [22]): 44 nM
Ratio IC50 (Homo sapiens [23]): 1.5

Compound: CC(O)CNC(=O)c1nc(-c2ccc(CN(C)C)cc2)cnc1N (racemic)
permeability [1]: 77%
solubility [2]: > 1000 µM
CLH [3]: 103 µL/min/mg
